From the supplement of paper PMC10307832

Key:
Test in all cases: relative viability (nuclei count vs DMSO), 5 days (fraction); higher = more cells survive
[1] = compound: CC[C@H](CO)Nc1nc(NCc2ccccc2)c2ncn(C(C)C)c2n1 [Seliciclib] + CS(=O)(=O)N1CCN(Cc2cc3nc(-c4cccc5[nH]ncc45)nc(N4CCOCC4)c3s2)CC1 [Pictilisib] (partner 1 µM)
How it was run: (§1)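 Medians of duplicate plates are given as relative viability. That measure is the nuclei count in treated wells divided by the count in vehicle wells. Counts were taken on 4× images of lung cancer cell lines in 1536-well plates, 5 days after pin-tool dosing the day after seeding with one drug alone or a fixed anchor-drug dose plus five library-drug doses (not always all listed) in √10 steps.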

[2] = compound: CC[C@H](CO)Nc1nc(NCc2ccccc2)c2ncn(C(C)C)c2n1 [Seliciclib] + C[C@]1(O)C[C@@H](c2nc(-c3ccc4ccc(-c5ccccc5)nc4c3)c3c(N)nccn32)C1 [Linsitinib] (partner 1 µM)
How it was run: as §1

[3] = compound: CC[C@H](CO)Nc1nc(NCc2ccccc2)c2ncn(C(C)C)c2n1 [Seliciclib] + Cc1nc(NC(=O)N2CCC[C@H]2C(N)=O)sc1-c1ccnc(C(C)(C)C(F)(F)F)c1 [Alpelisib] (partner 2 µM)
How it was run: as §1

[4] = compound: CC[C@H](CO)Nc1nc(NCc2ccccc2)c2ncn(C(C)C)c2n1 [Seliciclib] + Nc1ncn([C@H]2C[C@H](O)[C@@H](CO)O2)c(=O)n1 [Decitabine] (partner 2 µM)
How it was run: as §1

Cell Line	relative viability ([1]; first compound 0.08 µM)	relative viability ([1]; first compound 0.253 µM)	relative viability ([1]; first compound 0.8 µM)	relative viability ([1]; first compound 2.53 µM)	relative viability ([1]; first compound 8 µM)	relative viability ([2]; first compound 0.08 µM)	relative viability ([2]; first compound 0.253 µM)	relative viability ([2]; first compound 0.8 µM)	relative viability ([2]; first compound 2.53 µM)	relative viability ([2]; first compound 8 µM)	relative viability ([3]; first compound 0.08 µM)	relative viability ([3]; first compound 0.253 µM)	relative viability ([3]; first compound 0.8 µM)	relative viability ([3]; first compound 2.53 µM)	relative viability ([3]; first compound 8 µM)	relative viability ([4]; first compound 0.08 µM)	relative viability ([4]; first compound 0.253 µM)	relative viability ([4]; first compound 0.8 µM)	relative viability ([4]; first compound 2.53 µM)	relative viability ([4]; first compound 8 µM)
NCI-H1993	0.816	0.703	0.847	0.777	0.847	0.746	0.749	0.768	0.724	0.713	0.728	0.708	0.716	0.688	0.669	0.62	0.549	0.632	0.54	0.441
NCI-H1437	0.484	0.377	0.439	0.394	0.331	1.02	1.06	0.974	1.16	0.786	0.919	0.855	1.02	1.02	0.935	0.557	0.563	0.566	0.477	0.56
UMC-11	0.919	0.891	0.854	0.8	0.7	1.02	0.872	1.01	1.04	0.851	0.856	0.896	0.995	1.24	0.823	0.542	0.392	0.612	0.606	0.526
201T	0.712	0.693	0.676	0.656	0.626	1.04	1.07	0.994	1.05	0.982	1.01	1.02	0.997	0.997	0.966	0.827	0.893	0.857	0.806	0.728
NCI-H1944	0.375	0.35	0.333	0.283	0.303	1.08	1.19	1.09	1.17	0.904	0.813	0.859	0.77	0.904	0.666	0.471	0.43	0.467	0.519	0.405
LOU-NH91	0.49	0.573	0.495	0.484	0.468	0.878	0.889	0.881	1.01	0.693	0.687	0.689	0.661	0.653	0.515		0.795	0.784	0.785	0.693
HOP-62	0.778	0.61	0.563	0.588	0.62	1.04	0.935	0.891	0.834	0.879	1.03	0.811	0.942	1.05	0.829	0.199	0.177	0.223	0.235	0.253
NCI-H1915	0.918	1.05	0.824	0.839	0.803	1.11	1.14	1.14	1.12	0.885	1.05	1.1	1.04	1.04	0.875	0.252	0.264	0.277	0.243	0.255
NCI-H3122	0.607	0.63	0.432	0.509	0.506	0.966	1.03	0.987	1.05	0.94	0.762	0.763	0.753	0.765	0.777	0.399	0.234	0.479	0.472	0.294
NCI-H1651	0.484	0.636	0.563	0.45	0.487	0.878	0.879	0.91	0.924	0.839	0.93	0.839	0.833	0.81	0.804	0.553	0.6	0.65	0.51	0.592
NCI-H838	0.469	0.468	0.432	0.408	0.294	0.933	0.864	0.943	1.07	0.966	0.971	0.853	0.884	1.14	0.94	0.457	0.508	0.437	0.411	0.381
NCI-H596	0.376	0.36	0.403	0.421	0.415	1.09	0.636	0.996	1.12	1.1	0.522	0.428	0.498	0.506	0.468	0.951		0.961	1.03	0.828
SK-LU-1	0.615	0.641	0.762	0.556	0.526	0.973	0.868	1.32	1.09	0.687	1	1.05	1.04	0.795	0.636	0.614	0.544	0.649	0.614	0.542
NCI-H441	0.49	0.635	0.531	0.469	0.377	0.699	0.545	0.45	0.572	0.442	0.631	0.584	0.776	0.754	0.51	0.262	0.265	0.258	0.201	0.256
NCI-H650	0.887	0.869	1.04		0.772	0.833	0.925	1.17		0.897	1.05	1.02	1.35		0.872	0.333	0.299	0.306	0.295	0.332
NCI-H1792	0.233	0.313	0.273	0.285	0.274	0.459	0.568	0.521	0.678	0.477	0.765	0.725	0.719	0.682	0.633	0.45	0.506	0.608		0.556
NCI-H1355	0.426	0.452	0.359	0.452	0.429	0.788	0.73	0.792	0.892	0.812	0.784	0.754	0.822	0.919	0.831	0.35	0.334	0.356	0.374	0.38
SW 1573	0.494	0.516	0.428	0.516	0.474	0.768	0.792	0.904	0.743	0.668	0.653	0.805	0.786	0.712	0.567	0.497	0.515	0.474	0.408	0.663
A549	0.501	0.595	0.525	0.507	0.273	0.599	0.473	0.434	0.651	0.446	0.763	0.67	0.696	0.656	0.458	0.279	0.235	0.188	0.286	0.248
NCI-H2347	0.645	0.6	0.321	0.829	0.448	1.05	0.995	0.849	1	0.922	1.05	1.04	0.757	1.03	0.805	0.66	0.522	0.597	0.602	0.597
LCLC-97TM1	0.281	0.168	0.17		0.142	0.162	0.181	0.205		0.18	0.243	0.308	0.382		0.23	0.237	0.187	0.189	0.231	0.201
EMC-BAC-2	0.505	0.526	0.497	0.392	0.51	0.835	0.805	0.775	0.894	0.754	0.759	0.731	0.739	0.774	0.703	0.918	1.01	1	0.753	0.856
NCI-H1975	0.296	0.298	0.352	0.214	0.271	1.03	0.865	0.975	0.819	0.6	0.653	0.526	0.602	0.621	0.445	0.394	0.349	0.365	0.645	0.332
BEN	0.596		0.549	0.675	0.545	1.16		0.852	1.07	0.786	1.13		0.844	1.12	0.862	0.738	0.739	0.761	0.698	0.622
SK-MES-1	0.317	0.349	0.353	0.335	0.31	1.02	0.995	1.04	1.05	0.981	0.811	0.85	0.846	0.873	0.948	0.386	0.371	0.349	0.451	0.458
NCI-H23	0.507	0.462	0.395	0.283	0.365	0.616	0.392	0.505	0.599	0.419	0.612	0.447	0.603	0.504	0.562	0.278	0.293	0.316	0.288	0.268
NCI-H520	0.305	0.326	0.287	0.318	0.252	0.954	0.762	0.924	0.949	0.935	0.897	0.682	0.831	1.02	0.931	0.522	0.486	0.537	0.632	0.643
